{
  "source": "ChEMBL document CHEMBL1201862",
  "about": "“PubChem BioAssay data set” (2004)",
  "key": {"[1]": {"target": "T1, Histone-lysine N-methyltransferase NSD2 (Homo sapiens, UniProt O96028)", "T1 sequence (O96028 whole entry)": "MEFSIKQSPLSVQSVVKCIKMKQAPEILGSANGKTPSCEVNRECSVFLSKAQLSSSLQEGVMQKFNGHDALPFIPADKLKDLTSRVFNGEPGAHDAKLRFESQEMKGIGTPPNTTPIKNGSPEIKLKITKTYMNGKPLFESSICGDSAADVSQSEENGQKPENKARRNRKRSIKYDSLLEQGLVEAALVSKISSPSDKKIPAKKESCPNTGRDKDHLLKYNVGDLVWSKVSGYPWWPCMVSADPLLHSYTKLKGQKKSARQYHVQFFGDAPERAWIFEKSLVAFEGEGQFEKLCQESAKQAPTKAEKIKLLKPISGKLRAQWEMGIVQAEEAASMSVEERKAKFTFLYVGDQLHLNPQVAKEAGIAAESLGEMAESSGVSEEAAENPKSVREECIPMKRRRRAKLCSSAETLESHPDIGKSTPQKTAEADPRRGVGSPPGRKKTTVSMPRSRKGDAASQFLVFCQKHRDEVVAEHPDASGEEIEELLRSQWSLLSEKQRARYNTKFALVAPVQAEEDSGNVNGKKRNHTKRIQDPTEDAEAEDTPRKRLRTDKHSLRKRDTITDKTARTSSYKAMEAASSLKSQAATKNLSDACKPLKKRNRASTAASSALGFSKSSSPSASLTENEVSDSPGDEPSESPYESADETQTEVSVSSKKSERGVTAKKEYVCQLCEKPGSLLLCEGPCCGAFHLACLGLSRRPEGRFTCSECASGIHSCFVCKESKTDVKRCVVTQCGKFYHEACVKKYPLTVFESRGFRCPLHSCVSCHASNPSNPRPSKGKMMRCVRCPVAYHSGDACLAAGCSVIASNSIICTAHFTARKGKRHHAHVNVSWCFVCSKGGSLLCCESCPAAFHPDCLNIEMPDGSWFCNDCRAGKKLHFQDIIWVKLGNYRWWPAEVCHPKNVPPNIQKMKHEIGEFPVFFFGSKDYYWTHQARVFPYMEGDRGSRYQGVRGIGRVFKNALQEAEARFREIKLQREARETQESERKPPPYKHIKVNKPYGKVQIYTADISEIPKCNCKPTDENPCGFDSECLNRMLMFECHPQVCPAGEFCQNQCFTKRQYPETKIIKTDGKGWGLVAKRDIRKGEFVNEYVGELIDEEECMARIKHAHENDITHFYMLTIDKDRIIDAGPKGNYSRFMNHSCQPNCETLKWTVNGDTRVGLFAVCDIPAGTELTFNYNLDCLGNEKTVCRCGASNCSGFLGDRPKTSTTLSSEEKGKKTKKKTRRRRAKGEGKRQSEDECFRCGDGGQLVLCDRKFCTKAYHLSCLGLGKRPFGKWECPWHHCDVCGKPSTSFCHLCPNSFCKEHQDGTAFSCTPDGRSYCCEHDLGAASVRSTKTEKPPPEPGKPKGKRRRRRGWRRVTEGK", "format": "biochemical"}, "[2]": {"target": "T2, Sentrin-specific protease 8 (Homo sapiens, UniProt Q96LD8)", "T2 sequence (Q96LD8 whole entry)": "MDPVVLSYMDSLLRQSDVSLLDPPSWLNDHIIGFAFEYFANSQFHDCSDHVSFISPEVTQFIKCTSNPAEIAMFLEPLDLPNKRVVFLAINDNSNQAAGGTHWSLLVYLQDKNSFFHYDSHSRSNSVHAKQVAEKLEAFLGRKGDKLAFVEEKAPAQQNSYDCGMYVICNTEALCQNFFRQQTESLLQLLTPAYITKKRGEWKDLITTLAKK", "format": "functional"}, "[3]": {"test": "Luminescence Cell-Based Dose Response HTS to Identify Inhibitors of 5'UTR Stem-Loop Driven Prion Protein mRNA Translation in H4 Neuroglioblastoma Cells. [Related pubchem assays: 1827 (Project Summary), 1813 (Primary HTS)]", "format": "functional"}, "[4]": {"test": "alpha-synuclein stem-loop luciferase translation blockers – H4 neuroglioma cells, luminescence, confirmation (AID 1988)", "format": "functional, cell-based"}, "[5]": {"test": "Counterscreen for AddAB inhibitors: absorbance-based bacterial cell-based high throughput dose response assay for inhibitors of bacterial viability. [Related pubchem assays (depositor defined):AID435030, AID449728, AID449731, AID488942, AID488955, AID488956]", "format": "functional"}, "[6]": {"target": "T3, Alkaline phosphatase, tissue-nonspecific isozyme (Homo sapiens, UniProt P05186)", "T3 sequence (P05186 whole entry)": "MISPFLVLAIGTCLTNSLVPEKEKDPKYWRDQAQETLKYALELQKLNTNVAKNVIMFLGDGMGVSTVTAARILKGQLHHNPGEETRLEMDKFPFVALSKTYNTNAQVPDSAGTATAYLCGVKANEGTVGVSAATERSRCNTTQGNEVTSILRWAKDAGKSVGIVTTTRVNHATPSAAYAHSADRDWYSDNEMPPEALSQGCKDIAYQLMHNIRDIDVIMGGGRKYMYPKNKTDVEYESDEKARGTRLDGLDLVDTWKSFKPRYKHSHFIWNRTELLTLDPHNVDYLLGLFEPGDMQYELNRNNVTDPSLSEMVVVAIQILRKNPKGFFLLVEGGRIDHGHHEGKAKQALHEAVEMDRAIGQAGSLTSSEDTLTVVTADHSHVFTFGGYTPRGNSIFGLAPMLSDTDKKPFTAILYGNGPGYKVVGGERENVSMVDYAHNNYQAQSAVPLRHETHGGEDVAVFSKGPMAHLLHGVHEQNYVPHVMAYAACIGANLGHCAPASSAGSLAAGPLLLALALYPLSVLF", "test": "activation of tissue-nonspecific alkaline phosphatase – biochemical, TNAP isozyme, human IAP uHTS hits, selectivity assay for human IAP activator project, dose response (AID 488886);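 further: potency of compounds raising TNAP activity as a selectivity check on IAP activators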", "format": "functional"}, "[7]": {"test": "blockers of HIV-1 ZM109 envelope-driven cell-cell fusion – HeLa effector, CEM target cells, luciferase, cherry-pick, dose response (AID 652058);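 further: luciferase signal from HIV-1 Env mediated cell-cell fusion of effector and target cells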", "format": "functional, cell-based"}, "[8]": {"test": "cells", "format": "functional, cell-based"}, "[9]": {"target": "Heat shock protein HSP 90-alpha (Homo sapiens, UniProt P07900)", "format": "functional, organism-based"}, "[10]": {"test": "IGROV1 cell killing – plate reader, dry powder samples, PAX8 inhibitor project, dose response (AID 743043)", "format": "functional, cell-based", "details": "IGROV-1"}, "[11]": {"test_system": "HEK293", "test": "HEK293T cell viability loss, resazurin readout – resazurin fluorescence, cytotoxicity control for NF-kB activator project, SAR follow-up (AID 493251)", "format": "functional, cell-based", "details": "Homo sapiens"}, "[12]": {"test_system": "Jurkat", "test": "SAR Analysis of small molecule inhibitors of T-cell specific antigen receptor-induced NF-kB activation in a Jurkat cell line using a luminescence assay - Set 2. [Related pubchem assays (depositor defined):AID435003, AID435012, AID465]", "format": "functional, cell-based", "details": "Homo sapiens"}, "[13]": {"test": "PAX5 cellular inhibition readout – cell-based, plate reader, dry powder samples, selectivity assay for PAX8 inhibitor project, dose response (AID 743047);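 further: HEK293 cells carrying a Pax5 driven CD19 promoter luciferase reporter; potency of inhibitors that lower reporter luminescence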", "format": "functional"}, "[14]": {"test": "OVCAR4 cell viability loss – plate reader, dry powder, SA11, cytotoxicity control for PAX8 inhibitor project, dose response (AID 743150)", "format": "functional, cell-based", "details": "OVCAR-4"}, "[15]": {"test": "loss of viability in HepG2 cells – cell-based, CellTiter-Glo, cherry-picked, cytotoxicity control for Shn3 inhibitor project, dose response (AID 624134)", "format": "functional"}},
  "note": "Activity calls are given as the source filed them.",
  "data": [
    {"compound": "O=C(N/N=C1\\C/C(=N\\NC(=O)c2ccncc2)c2ccccc21)c1ccncc1", "values": [
      {"measurement": "AC50", "setting": "[1]", "value": "4.72 µM (active)"},
      {"measurement": "IC50", "setting": "[2]", "value": "1.35 µM (active)"}
    ]},
    {"compound": "COc1ccc(-n2c3nc4ccccc4nc3c3c(=N)oc(C)nc32)cc1", "values": [
      {"measurement": "AC50", "setting": "[1]", "value": "> 20 µM (inactive)"}
    ]},
    {"compound": "O=C(/C=C/c1cccs1)NC(=S)NNC(=O)c1ccccc1O", "values": [
      {"measurement": "EC50", "setting": "[3]", "value": "9.65 µM (active)"},
      {"measurement": "EC50", "setting": "[4]", "value": "> 120 µM (not active)"},
      {"measurement": "IC50", "setting": "[5]", "value": "109 µM (inactive)"},
      {"measurement": "EC50", "setting": "[6]", "value": "11.8 µM (active)"}
    ]},
    {"compound": "CC(=O)N(Cc1ccc(F)cc1)C1=C(NCCc2ccccc2)C(=O)c2ccccc2C1=O", "values": [
      {"measurement": "AC50", "setting": "[7]", "value": "5.61 µM (active)"}
    ]},
    {"compound": "CCCCC(=O)NC(c1ccccc1)c1ccc2cccnc2c1O", "note": "(configuration not stated)", "values": [
      {"measurement": "EC50", "setting": "[8]", "value": "> 350 µM (not active)"},
      {"measurement": "AC50", "setting": "[9]", "value": "25.5 µM (active)"},
      {"measurement": "IC50", "setting": "[5]", "value": "> 118 µM (inactive)"},
      {"measurement": "AC50", "setting": "[10]", "value": "5.47 µM (active)"},
      {"measurement": "IC50", "setting": "[11]", "value": "10.6 µM (active)"},
      {"measurement": "IC50", "setting": "[12]", "value": "5.62 µM (active)"},
      {"measurement": "AC50", "setting": "[13]", "value": "2.37 µM (active)"},
      {"measurement": "AC50", "setting": "[14]", "value": "9.22 µM (active)"},
      {"measurement": "AC50", "setting": "[15]", "value": "2.44 µM (active)"}
    ]}
  ]
}
